Experimental data published in ChEMBL document CHEMBL4715775, “Synthesis and structure-activity relationships of 1-benzylindane derivatives as selective agonists for estrogen receptor beta” (Bioorg Med Chem, 2016).
pEC50: −log10 of the molar value.

Legend:
Estrogen receptor beta = Estrogen receptor beta (Homo sapiens, UniProt Q92731)
Description: Agonist activity at human ERbeta receptor expressed in HEK293T cells transfected with pGL4.27-(ERE)3-Luc assessed as transcriptional activation measured after 16 hrs by Dual-Glo luciferase assay

Estrogen receptor [1] = target: T1, Estrogen receptor (Homo sapiens, UniProt P03372)
T1 sequence (P03372 whole entry): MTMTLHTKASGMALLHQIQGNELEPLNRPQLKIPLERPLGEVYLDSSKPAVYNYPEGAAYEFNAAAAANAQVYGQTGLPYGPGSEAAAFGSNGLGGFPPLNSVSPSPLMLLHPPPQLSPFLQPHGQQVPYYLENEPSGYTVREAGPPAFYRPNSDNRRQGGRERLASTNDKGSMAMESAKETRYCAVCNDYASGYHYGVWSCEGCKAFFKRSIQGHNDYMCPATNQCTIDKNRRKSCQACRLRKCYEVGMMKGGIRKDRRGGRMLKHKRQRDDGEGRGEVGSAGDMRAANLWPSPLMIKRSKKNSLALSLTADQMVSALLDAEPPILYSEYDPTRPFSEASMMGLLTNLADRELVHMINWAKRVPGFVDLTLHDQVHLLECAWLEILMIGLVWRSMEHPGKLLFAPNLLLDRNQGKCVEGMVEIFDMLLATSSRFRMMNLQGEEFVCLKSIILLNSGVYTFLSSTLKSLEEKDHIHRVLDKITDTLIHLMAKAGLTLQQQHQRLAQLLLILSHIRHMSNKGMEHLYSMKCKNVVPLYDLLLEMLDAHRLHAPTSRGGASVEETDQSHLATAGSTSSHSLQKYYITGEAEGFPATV
Description: Agonist activity at human ERalpha receptor expressed in HEK293T cells transfected with pGL4.27-(ERE)3-Luc assessed as transcriptional activation measured after 16 hrs by Dual-Glo luciferase assay

Estrogen receptor [2] = target: T1, Estrogen receptor; assay: Agonist activity at human ERalpha receptor expressed in HEK293T cells transfected with pGL4.27-(ERE)3-Luc assessed as transcriptional activation at 10 uM measured after 16 hrs by Dual-Glo luciferase assay relative to 17beta-estradiol; type: cell-based

Estrogen receptor beta, sequence (Q92731 whole entry): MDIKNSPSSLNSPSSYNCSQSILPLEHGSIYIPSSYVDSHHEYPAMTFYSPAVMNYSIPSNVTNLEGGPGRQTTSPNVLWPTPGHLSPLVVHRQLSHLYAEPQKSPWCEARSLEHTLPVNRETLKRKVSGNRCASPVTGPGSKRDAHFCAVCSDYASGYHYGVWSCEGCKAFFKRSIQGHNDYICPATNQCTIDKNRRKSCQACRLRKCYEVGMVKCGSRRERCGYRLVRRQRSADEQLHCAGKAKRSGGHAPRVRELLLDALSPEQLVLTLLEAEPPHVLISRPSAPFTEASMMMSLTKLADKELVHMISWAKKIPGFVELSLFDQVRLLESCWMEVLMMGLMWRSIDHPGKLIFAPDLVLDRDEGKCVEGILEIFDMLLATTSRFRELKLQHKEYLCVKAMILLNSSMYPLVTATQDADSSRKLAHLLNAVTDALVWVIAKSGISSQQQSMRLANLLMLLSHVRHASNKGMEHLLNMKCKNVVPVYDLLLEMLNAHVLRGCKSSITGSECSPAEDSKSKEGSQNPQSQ

| Structure (SMILES) | pEC50 (Estrogen receptor beta) | pEC50 (Estrogen receptor [1]) | Activity (Estrogen receptor [2]) [%] |
| --- | --- | --- | --- |
| CCC(c1ccc(O)cc1)C1CCc2cc(O)ccc21 (centres undefined) | 10.00 |  |  |
| Oc1cccc(CC2CCc3cc(O)ccc32)c1 (centres undefined) | 7.49 | 5.51 |  |
| Cc1cc(O)ccc1CC1(C#N)CCc2cc(O)ccc21 (centres undefined) | 9.32 | 6.02 |  |
| N#CC1(Cc2ccc(O)cc2Cl)CCc2cc(O)ccc21 (centres undefined) | 10.30 |  |  |
| Oc1ccc(CC2CCc3c(O)cccc32)cc1 (centres undefined) | 7.14 |  |  |
| N#CC1(Cc2ccc(O)cc2F)CCc2cc(O)ccc21 (centres undefined) | 9.82 | 6.59 |  |
| N#CC1(Cc2ccc(O)c(F)c2)CCc2cc(O)ccc21 (centres undefined) | 9.04 | 5.74 |  |
| N#CC1(Cc2ccc(O)c(Cl)c2)CCc2cc(O)ccc21 (centres undefined) | 7.94 |  | 7 |
| Oc1ccc(CCc2ccc(O)cc2)cc1 |  |  | 47 |
| CCC(Cc1ccc(O)cc1)c1ccc(O)cc1 (centres undefined) [ISOBUTESROL] | 9.64 | 6.73 |  |

Next, values leading:

| pEC50 (Estrogen receptor beta) | pEC50 (Estrogen receptor [1]) | Activity (Estrogen receptor [2]) [%] | Structure (SMILES) |
| --- | --- | --- | --- |
| 9.74 | 6.99 |  | Oc1ccc(CC2CCCc3cc(O)ccc32)cc1 (centres undefined) |
| 9.44 | 6.94 |  | CCC1(Cc2ccc(O)cc2)CCc2cc(O)ccc21 (centres undefined) |
| 8.52 |  |  | N#CCC1(Cc2ccc(O)cc2)CCc2cc(O)ccc21 (centres undefined) |
|  | 6.77 |  | CCCC1(Cc2ccc(O)cc2)CCc2cc(O)ccc21 (centres undefined) |
| 8.18 |  | 42 | CCCCC1(Cc2ccc(O)cc2)CCc2cc(O)ccc21 (centres undefined) |
|  | 5.62 |  | N#C[C@@]1(Cc2ccc(O)cc2)CCc2cc(O)ccc21 |
|  | 6.32 |  | CC1(Cc2ccc(O)cc2)CCc2cc(O)ccc21 (centres undefined) |
| 9.82 | 6.91 |  | Oc1ccc(CC2CCCCc3cc(O)ccc32)cc1 (centres undefined) |
| 7.97 |  | 2 | Cc1cc(CC2(C#N)CCc3cc(O)ccc32)ccc1O (centres undefined) |
| 7.59 | 5.68 |  | Oc1ccc(CC2CCc3ccc(O)cc32)cc1 (centres undefined) |
|  | 5.52 |  | N#C[C@]1(Cc2ccc(O)cc2)CCc2cc(O)ccc21 |
|  | 5.55 |  | N#CC1(Cc2ccc(O)cc2)CCc2cc(O)ccc21 (racemic) |
